Entries after “also recorded” stand apart in the source; their conditions may differ. Counter-ions that a name gives are not always drawn. Like-named read-outs stand apart in the source and are kept apart here.
Tests used:
[1] = target: T1, human NMDA receptors GluN1 and GluN2A subunits (GluN2A-containing NMDAR) (Homo sapiens, UniProt Q05586+Q12879); assay: cell-based
T1 construct: expressed in transfected cells; host or cells: HEK293 cells, transient liposome transfection of TRE-GluN1-GluN2A, tTA and pCAG-EGFP
T1 sequence (Q12879 23-1464, other chains not shown): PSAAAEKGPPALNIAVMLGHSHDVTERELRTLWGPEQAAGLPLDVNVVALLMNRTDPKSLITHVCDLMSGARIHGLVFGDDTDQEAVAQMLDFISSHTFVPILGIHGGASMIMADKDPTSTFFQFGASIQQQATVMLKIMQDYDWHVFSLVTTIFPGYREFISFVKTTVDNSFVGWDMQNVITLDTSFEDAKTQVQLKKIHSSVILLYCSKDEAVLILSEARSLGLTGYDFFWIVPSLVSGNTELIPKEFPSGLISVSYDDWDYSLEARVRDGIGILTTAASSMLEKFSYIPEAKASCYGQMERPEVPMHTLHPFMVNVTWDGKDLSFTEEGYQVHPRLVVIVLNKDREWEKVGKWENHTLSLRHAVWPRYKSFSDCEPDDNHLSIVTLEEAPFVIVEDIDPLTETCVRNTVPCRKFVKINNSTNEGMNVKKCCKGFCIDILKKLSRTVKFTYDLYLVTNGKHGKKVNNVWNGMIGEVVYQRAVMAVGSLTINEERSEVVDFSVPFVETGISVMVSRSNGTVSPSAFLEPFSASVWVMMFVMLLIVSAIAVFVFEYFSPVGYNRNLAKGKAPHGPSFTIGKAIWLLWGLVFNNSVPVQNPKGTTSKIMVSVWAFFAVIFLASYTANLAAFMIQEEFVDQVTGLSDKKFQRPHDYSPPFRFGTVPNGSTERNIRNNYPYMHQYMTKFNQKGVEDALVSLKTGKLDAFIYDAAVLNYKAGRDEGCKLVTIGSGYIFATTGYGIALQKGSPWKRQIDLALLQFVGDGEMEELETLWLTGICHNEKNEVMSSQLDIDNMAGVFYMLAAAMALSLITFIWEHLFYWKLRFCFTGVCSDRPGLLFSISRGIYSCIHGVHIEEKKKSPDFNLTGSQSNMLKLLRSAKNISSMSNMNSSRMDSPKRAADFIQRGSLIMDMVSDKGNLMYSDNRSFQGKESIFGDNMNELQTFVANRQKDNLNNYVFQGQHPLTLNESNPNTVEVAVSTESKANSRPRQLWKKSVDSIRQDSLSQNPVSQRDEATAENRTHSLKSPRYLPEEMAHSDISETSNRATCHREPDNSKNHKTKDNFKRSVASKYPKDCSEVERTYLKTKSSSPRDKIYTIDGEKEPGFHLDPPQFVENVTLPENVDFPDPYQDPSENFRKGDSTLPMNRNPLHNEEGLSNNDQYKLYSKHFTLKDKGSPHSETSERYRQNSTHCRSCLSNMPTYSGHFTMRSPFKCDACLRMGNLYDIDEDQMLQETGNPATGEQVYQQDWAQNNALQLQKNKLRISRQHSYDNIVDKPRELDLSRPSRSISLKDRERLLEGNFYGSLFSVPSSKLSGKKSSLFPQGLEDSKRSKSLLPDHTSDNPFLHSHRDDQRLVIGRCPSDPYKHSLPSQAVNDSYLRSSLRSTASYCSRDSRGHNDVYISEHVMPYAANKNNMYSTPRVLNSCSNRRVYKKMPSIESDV
Description: On the day before transfection, HEK293 cells were seeded in a 24-well plate with a 10 mm glass sheet, which was coated with polylysine in advance to increase the adhesion capacity of the cells. The plate was added with DMEM medium containing 10% FBS and incubated at 37° C., in 5% CO2 incubator. When the cell fusion reached 60%-70% after 18-24 hours, the plasmid cDNAs containing TRE-GluN1-GluN2A of human GluN1 and GluN2A, tTA, and pCAG-EGFP were transfected into HEK293 by liposome transfection (TRE-GluN1-GluN2A:tTA:pCAG-EGFP is 0.2 μg:0.2 μg:0.02 μg). Before transfection, anew DMEM medium was changed and added with 1 μg/mL Dox (doxycycline) to induce stable expression in the medium, and added with 100 μM D-APV and 10 mM MgCl2 to avoid cell excitatory toxicity caused by NMDAR overexpression. Cells with green fluorescence were selected for electrophysiological recording after transfection for about 24 h.
A glass plate seeded with HEK293 cells was placed in a recording bath and perfused with the extracellular fluid at a rate of 4 mL/min (NaCl 140 mM, KCl 2.8 mM, HEPES 10 mM, CaCl2 1 mM, glycine 0.1 mM, pH 7.2). The channels of the ALA-VC^3 eight-channel pressure perfusion system were filled with extracellular fluid for washing, extracellular fluid containing glutamic acid (100 μM), and extracellular fluid containing glutamic acid and compound to be tested, respectively, with a drop rate of about 1 drop/sec and 10 μL/drop. HEK293 cells with moderate green fluorescence intensity and good adhesion were selected under a fluorescence microscope for recording. The microglass tube of the perfusion system was placed about ten cells away from the cells to be recorded, and the drug was sprayed to the cell surface under the pressure of air (0.02 MPa). The glass electrode was prepared by drawing with a microelectrode drawing instrument with a resistance of 4-6 MΩ and filled with electrode liquid (CsCl 125 mM, HEPES 10 mM, EGTA 11 mM). The microelectrode manipulator was used to slowly push the glass electrode towards the cells. The electrode was attached to the cell membranes and applied with negative pressure, so that a high-resistance seal of more than 1 GΩ was formed between the electrode tip and the cell membrane, and then negative pressure was given to suck through the cell membrane to form a whole-cell recording mode. After the formation of whole-cell recording mode, the cell membrane potential was clamped at −70 mV. The extracellular fluid containing 100 μM glutamic acid, the extracellular fluid containing 100 μM glutamic acid and the compound to be tested, and the extracellular fluid were sprayed to the cell membrane surface sequentially through the perfusion system for 10 s, 20 s, and 10 s to record the NMDA receptor-mediated current and evaluate the inhibitory effect of the compound on GluN2A-containing NMDAR. The experimental process was controlled by pCLAMP 10.6, and the Digidata 1440A digital-to-analog converter was used to complete the generation of stimulus signal and the acquisition of feedback signal.
The ordinate in the figure is the normalized current ratio, which represents the ratio of the current mediated by NMDAR after administration of ketamine and the compound at a concentration of 10 μM to the current mediated by NMDAR before administration. […] Ketamine was used as a positive control.
The inhibitory percentages of the compound according to the present disclosure on NMDAR-mediated current=[…]/NMDAR mediated-current before administration*100%.

mice = assay: High dose toxicity test (behavior of mice after i.p. administration); type: in vivo; details: medium dose 100 mg/kg body weight, observed about one hour, hydrochloride, 100 mg/kg
Description: • 1. Experiments were performed in a quiet environment where animals needed to be weighed and acclimatized in the laboratory room for at least 30 min before the experiment. • 2. The compound to be tested was dissolved with 0.9% physiological saline at a concentration of 10 mg/ml. According to the body weight of mice, a corresponding volume of the compound was intraperitoneal injected (i.p.), so as to provide the target dose. • 3. The mice after administration were placed in transparent observation boxes, and the behavioral changes of the mice were recorded by video and observed for about one hour. (Note: During the observation period, if a mouse was lying still on the stomach, the mouse was turned over with your hand to check whether the righting reflex (RR) of the mouse disappeared. If it disappeared, the mouse was in the state of anesthesia, the time of anesthesia in the mouse was recorded). • 4. After one hour of observation, the mice were returned to the feeding cage and the observation boxes were wiped with 75% alcohol so that the information left over from the previous round (e.g. animal stool, urine and other odors) would not affect the next test results. Animals were replaced for the next round to continue the experiment.
Mice died after ketamine administration.
According to Rodent Epileptiform Behavior Scale score, Compound 9 induced epileptiform behavior in mice with a maximum score of 3. […] According to the Rodent Epileptiform Behavior Scale score. Compound 41 and 42 induced epileptiform behavior in mice with a maximum score of 1. […] The epileptiform behavior was scored according to the Rodent Epileptiform Behavior Scale score.

[2] = NMDAR-mediated current, HEK293 cells expressing human GluN1/GluN2A, 100 μM glutamic acid, clamped at −70 mV, compound 10 μM, read-out: current inhibitory percentages

SMILES | inhibition at 10 µM [1, 2] [%] | also measured
c1ccc(C23CCCCC2OCCN3)cc1 (centres unmarked) [Compound 1, 4a-phenyloctahydro-2H-benzo[b][1,4]oxazine hydrochloride] | 115 | –
COc1ccccc1C12CCCCC1OCCN2 (centres unmarked) [Compound 2, 4a-(2-methoxyphenyl)octahydro-2H-benzo[b][1,4]oxazine hydrochloride] | 56 | –
Fc1cccc(C23CCCCC2OCCN3)c1 (centres unmarked) [Compound 3, 4a-(3-fluorophenyl)octahydro-2H-benzo[b][1,4]oxazine hydrochloride] | 21.2 | –
Fc1ccc(C23CCCCC2OCCN3)cc1 (centres unmarked) [Compound 4, 4a-(4-fluorophenyl)octahydro-2H-benzo[b][1,4]oxazine formate] | 83.7 | –
Fc1cccc(C23CCCCC2OCCN3)c1F (centres unmarked) [Compound 5, 4a-(2,3-difluorophenyl)octahydro-2H-benzo[b][1,4]oxazine formate] | 54.5 | –
CC1CCC2OCCNC2(c2ccccc2)C1 (centres unmarked) [Compound 7, 6-methyl-4a-phenyloctahydro-2H-benzo[b][1,4]oxazine formate] | 86.4 | –
CCC1CCC2OCCNC2(c2ccccc2)C1 (centres unmarked) [Compound 8, 6-ethyl-4a-phenyloctahydro-2H-benzo[b][1,4]oxazine formate] | 28.9 | –
Cc1cccc(C23CCCCC2OCCN3)c1 (centres unmarked) [Compound 10, 4a-(3-methylphenyl)octahydro-2H-benzo[b][1,4]oxazine formate] | 98.3 | –
Cc1ccccc1C12CCCCC1OCCN2 (centres unmarked) [Compound 12, 4a-(2-methylphenyl)octahydro-2H-benzo[b][1,4]oxazine formate] | 33.7 | –
Cc1ccc(C23CCCCC2OCCN3)cc1 (centres unmarked) [Compound 14, 4a-(4-methylphenyl)octahydro-2H-benzo[b][1,4]oxazine formate] | 45.2 | –
CC1CCCC2(c3ccccc3)NCCOC12 (centres unmarked) [Compound 16, 8-methyl-4a-phenyloctahydro-2H-benzo[b][1,4]oxazine formate] | 107 | –
CC1CCCC2OCCNC12c1ccccc1 (centres unmarked) [Compound 17, 5-methyl-4a-phenyloctahydro-2H-benzo[b][1,4]oxazine formate] | 86.6 | –
CC1CCC2(c3ccccc3)NCCOC2C1 (centres unmarked) [Compound 18, 7-methyl-4a-phenyloctahydro-2H-benzo[b][1,4]oxazine formate] | 84.4 | –
CN1CCOC2CCCCC21c1ccccc1 (centres unmarked) [Compound 19, 4-methyl-4a-phenyloctahydro-2H-benzo[b][1,4]oxazine hydrochloride] | 17.8 | –
CC1(C)CNC2(c3ccccc3)CCCCC2OC1.Cl (centres unmarked) [Compound 20, 3,3-dimethyl-5a-phenyldecahydrobenzo[b][1,4]olanzapine hydrochloride] | – | current inhibitory percentages [1]: 64.86%
COc1cccc(C23CCCCC2OCCN3)c1 (centres unmarked) [Compound 21, 4a-(3-methoxyphenyl)octahydro-2H-benzo[b][1,4]oxazine hydrochloride] | 71.5 | –

SMILES | inhibition at 10 µM [1, 2] [%] | also measured
FC(F)(F)Oc1cccc(C23CCCCC2OCCN3)c1 (centres unmarked) [Compound 22, 4a-(3-(trifluoromethoxy)phenyl)octahydro-2H-benzo[b][1,4]oxazine hydrochloride] | 45.8 | –
FC(F)(F)c1ccc(C23CCCCC2OCCN3)cc1 (centres unmarked) [Compound 23, 4a-(4-(trifluoromethyl)phenyl)octahydro-2H-benzo[b][1,4]oxazine hydrochloride] | 9.25 | –
Cc1cccc(C)c1C12CCCCC1OCCN2 (centres unmarked) [Compound 24, 4a-(2,6-dimethylphenyl)octahydro-2H-benzo[b][1,4]oxazine hydrochloride] | 73.7 | –
CC(C)(C)c1ccc(C23CCCCC2OCCN3)cc1 (centres unmarked) [Compound 25, 4a-(4-(tertbutyl)phenyl)octahydro-2H-benzo[b][1,4]oxazine hydrochloride] | 11.2 | –
Clc1cccc(C23CCCCC2OCCN3)c1Cl (centres unmarked) [Compound 26, 4a-(2,3-dichlorophenyl)octahydro-2H-benzo[b][1,4]oxazine hydrochloride] | 92 | –
CC(C)c1ccccc1C12CCCCC1OCCN2 (centres unmarked) [Compound 27, 4a-(2-isopropylphenyl)octahydro-2H-benzo[b][1,4]oxazine hydrochloride] | 85.6 | –
Cc1ccc(C)c(C23CCCCC2OCCN3)c1 (centres unmarked) [Compound 28, 4a-(2,5-dimethylphenyl)octahydro-2H-benzo[b][1,4]oxazine hydrochloride] | 87.8 | –
Fc1cccc(C23CCCCC2OCCN3)c1Cl (centres unmarked) [Compound 29, 4a-(2-chloro-3-fluorophenyl)octahydro-2H-benzo[b][1,4]oxazine hydrochloride] | 85.7 | –
Fc1ccc(C23CCCCC2OCCN3)cc1F (centres unmarked) [Compound 30, 4a-(3,4-difluorophenyl)octahydro-2H-benzo[b][1,4]oxazine hydrochloride] | 86.6 | –
CC1(C)CCC2OCCNC2(c2ccccc2)C1 (centres unmarked) [Compound 31, 6,6-dimethyl-4a-phenyloctahydro-2H-benzo[b][1,4]oxazine hydrochloride] | – | inhibition at 10 µM ([1]; HEK293, read-out: current inhibitory percentages): 71.6%
Fc1ccc(Cl)c(C23CCCCC2OCCN3)c1 (centres unmarked) [Compound 32, 4a-(2-chloro-5-fluorophenyl)octahydro-2H-benzo[b][1,4]oxazine hydrochloride] | 102 | –
CCOc1cccc(C23CCCCC2OCCN3)c1 (centres unmarked) [Compound 33, 4a-(3-ethoxyphenyl)octahydro-2H-benzo[b][1,4]oxazine hydrochloride] | 76.4 | –
COc1ccc(C23CCCCC2OCCN3)c(Cl)c1 (centres unmarked) [Compound 34, 4a-(2-chloro-4-methoxyphenyl)octahydro-2H-benzo[b][1,4]oxazine hydrochloride] | 48.6 | –
Fc1cccc(Cl)c1C12CCCCC1OCCN2 (centres unmarked) [Compound 36, 4a-(2-chloro-6-fluorophenyl)octahydro-2H-benzo[b][1,4]oxazine hydrochloride] | 42.5 | –
Cc1cscc1[C@]12CCCC[C@H]1OCCN2 [Compound 40, (4aR,8aR)-4a-(4-methyl-3-thiophenyl)octahydro-2H-benzo[b][1,4]oxazine hydrochloride] | 89.3 | –
Clc1ccccc1[C@]12CCCC[C@H]1OCCN2 [Compound 43, (4aR,8aR)-4a-(2-chlorophenyl)octahydro-2H-benzo[b][1,4]oxazine hydrochloride] | – | behavior during observation (mice): no obvious abnormalities; also recorded: No abnormal

Reference: patent publication US20240254095A1, “NMDA Receptor Antagonist and Use Thereof” (priority 2021, published 2024)
